ChEMBL document CHEMBL4725284, “Junceellolide B, a novel inhibitor of Hepatitis B virus” (Bioorg Med Chem, 2020)

Legend:
[1] = Cytotoxicity against human HePAD38 cells assessed as cell viability incubated for 72 hrs by MTT assay; format: cell-based
[2] = test system: Hepatitis B virus; test: Antiviral activity against HBV infected in human HepAD38 cells assessed as inhibition of viral DNA at 10 uM incubated for 4 days by SYBR green dye based RT-PCR analysis relative to control; format: functional; details: HePAD38, 96 h, time 4 day
[3] = Cytotoxicity against human HepG2 cells assessed as cell viability incubated for 72 hrs by MTT assay; format: cell-based

Q: For `C=C1[C@H](OC(C)=O)C[C@H](OC(=O)CC)[C@@]2(C)[C@@H](OC(C)=O)CC[C@]3(CO3)[C@@H]2[C@H](OC(C)=O)[C@]2(O)[C@@H](C)C(=O)O[C@H]2[C@H]1Cl`, which CC50 at 72 h [1] is on record?
A: > 100 µM

Q: And the inhibition at 10 µM [2]?
A: 0%

Q: And the CC50 at 72 h [3]?
A: > 100 µM

Q: For `CC(=O)OC/C1=C/[C@@H]2OC(=O)[C@H](C)[C@@]2(O)[C@@H](OC(C)=O)[C@H]2[C@]3(CC[C@H](OC(C)=O)[C@]2(C)[C@@H](OC(C)=O)C[C@H]1OC(C)=O)CO3`, which CC50 at 72 h [1] is on record?
A: > 100 µM

Q: And the inhibition at 10 µM [2]?
A: 0%

Q: And the CC50 at 72 h [3]?
A: > 100 µM

Q: With `C=C1/C=C\[C@H](OC(C)=O)[C@@]2(C)[C@@H](OC(C)=O)CC[C@]3(CO3)[C@@H]2[C@H](OC(C)=O)[C@]2(O)[C@@H](C)C(=O)O[C@H]2[C@H]1Cl` as the molecule, how does the CC50 at 72 h [1] read?
A: > 100 µM

Q: And the inhibition at 10 µM [2]?
A: 0%

Q: What about the CC50 at 72 h [3] of the same molecule?
A: > 100 µM

Q: Which CC50 at 72 h [1] does the source give for `C=C1/C=C\[C@H](OC(=O)COC(C)=O)[C@@]2(C)[C@@H](OC(C)=O)CC[C@]3(CO3)[C@@H]2[C@H](OC(C)=O)[C@]2(O)[C@@H](C)C(=O)O[C@H]2[C@H]1Cl` here?
A: > 100 µM

Q: What about the inhibition at 10 µM [2] of the same molecule?
A: 0%

Q: What about the CC50 at 72 h [3] of the same molecule?
A: > 100 µM

Q: Which results are given for `CC(=O)OCC(=O)O[C@H]1/C=C\C(COC(C)=O)=C/[C@@H]2OC(=O)[C@H](C)[C@@]2(O)[C@@H](OC(C)=O)[C@H]2[C@]3(CC[C@H](OC(C)=O)[C@]12C)CO3`?
A: CC50 at 72 h [1]: > 100 µM; inhibition at 10 µM [2]: 0%; CC50 at 72 h [3]: > 100 µM

Q: With `C=C1[C@H](OC(C)=O)C[C@H](OC(C)=O)[C@@]2(C)[C@@H](OC(C)=O)CC[C@]3(CO3)[C@@H]2[C@H](OC(C)=O)[C@]2(O)[C@@H](C)C(=O)O[C@H]2[C@H]1Cl` as the molecule, how does the CC50 at 72 h [1] read?
A: > 100 µM

Q: What about the inhibition at 10 µM [2] of the same molecule?
A: 39%

Q: And the CC50 at 72 h [3]?
A: > 100 µM

Q: Which results are given for `C=C1CC[C@H](OC(C)=O)[C@]2(C)[C@@H](OC(C)=O)C[C@@H](OC(C)=O)/C(C)=C\[C@@H]3OC(=O)[C@H](C)[C@@]3(O)[C@@H](OC(C)=O)[C@@H]12`?
A: CC50 at 72 h [1]: > 100 µM; inhibition at 10 µM [2]: 31%; CC50 at 72 h [3]: > 100 µM

Q: With `CC(=O)O[C@H]1CC[C@]2(CO2)[C@@H]2[C@H](OC(C)=O)[C@@]3(O)[C@H](/C=C(/C)[C@H](OC(C)=O)C[C@H](OC(C)=O)[C@@]12C)OC(=O)[C@@H]3C` [11ALPHA,20ALPHA-EPOXYJUNCEELLOLIDE] as the molecule, how does the CC50 at 72 h [1] read?
A: > 100 µM

Q: And the inhibition at 10 µM [2]?
A: 3%

Q: What about the CC50 at 72 h [3] of the same molecule?
A: > 100 µM

Q: What does the source list for `C=C1CC[C@H](OC(C)=O)[C@]2(C)[C@@H](OC(C)=O)C[C@@H](O)/C(C)=C\[C@@H]3OC(=O)[C@H](C)[C@@]3(O)[C@@H](OC(C)=O)[C@@H]12`?
A: CC50 at 72 h [1]: > 100 µM; inhibition at 10 µM [2]: 12%; CC50 at 72 h [3]: > 100 µM

Q: For `C=C1C[C@H](OC(C)=O)[C@H](OC(C)=O)[C@@]2(C)[C@H]1[C@H](OC(C)=O)[C@@]13O[C@@H](C(=C)[C@H](Cl)[C@@H]1OC(=O)[C@@H]3C)[C@@H](O)[C@@H]2OC(C)=O`, which CC50 at 72 h [1] is on record?
A: > 100 µM

Q: And the inhibition at 10 µM [2]?
A: 0%

Q: What about the CC50 at 72 h [3] of the same molecule?
A: > 100 µM

Q: For `C=C1[C@H]2O[C@H]2[C@H](OC(C)=O)[C@@]2(C)[C@@H](OC(C)=O)CC[C@]3(CO3)[C@@H]2[C@H](OC(C)=O)[C@]2(O)[C@@H](C)C(=O)O[C@H]2[C@H]1Cl`, which CC50 at 72 h [1] is on record?
A: > 100 µM

Q: What about the inhibition at 10 µM [2] of the same molecule?
A: 29%

Q: And the CC50 at 72 h [3]?
A: > 100 µM

Q: With `C=C1CC[C@H](OC(C)=O)[C@]2(C)[C@@H](OC(=O)COC(C)=O)/C=C\C(=C)[C@H](Cl)[C@@H]3OC(=O)[C@H](C)[C@@]3(O)[C@@H](OC(C)=O)[C@@H]12` as the molecule, how does the CC50 at 72 h [1] read?
A: > 100 µM

Q: What about the inhibition at 10 µM [2] of the same molecule?
A: 6%

Q: And the CC50 at 72 h [3]?
A: > 100 µM

Q: For `C=C1[C@H](Cl)[C@@H]2OC(=O)[C@H](C)[C@]23O[C@]1(O)C[C@H](OC(C)=O)[C@@]1(C)[C@@H](OC(C)=O)CC[C@]2(CO2)[C@@H]1[C@@H]3OC(C)=O`, which CC50 at 72 h [1] is on record?
A: > 100 µM

Q: And the inhibition at 10 µM [2]?
A: 4%

Q: And the CC50 at 72 h [3]?
A: > 100 µM

Q: For `C=C1/C=C/[C@H](OC(C)=O)[C@@]2(C)[C@@H](OC(C)=O)C[C@H](OC(C)=O)[C@]3(CO3)[C@@H]2[C@H](OC(C)=O)[C@]2(O)[C@@H](C)C(=O)O[C@H]2[C@H]1Cl`, which CC50 at 72 h [1] is on record?
A: > 100 µM

Q: And the inhibition at 10 µM [2]?
A: 1%

Q: And the CC50 at 72 h [3]?
A: > 100 µM

Q: For `C=C1CC[C@H](OC(C)=O)[C@]2(C)[C@@H](OC(C)=O)/C=C/[C@]3(CO3)[C@H](Cl)[C@@H]3OC(=O)[C@H](C)[C@@]3(O)[C@@H](OC(C)=O)[C@@H]12`, which CC50 at 72 h [1] is on record?
A: > 100 µM

Q: What about the inhibition at 10 µM [2] of the same molecule?
A: 0%

Q: And the CC50 at 72 h [3]?
A: > 100 µM

Q: Which CC50 at 72 h [1] does the source give for `C=C1[C@H](Cl)[C@@H]2OC(=O)[C@H](C)[C@]23O[C@@H]1[C@@H](O)[C@H](OC(C)=O)[C@@]1(C)[C@@H](OC(C)=O)[C@@H](OC(C)=O)C[C@]2(CO2)[C@@H]1[C@@H]3OC(C)=O` here?
A: > 100 µM

Q: What about the inhibition at 10 µM [2] of the same molecule?
A: 31%

Q: And the CC50 at 72 h [3]?
A: > 100 µM

Q: What does the source list for `CC(=O)OCC1=C/[C@@H]2OC(=O)[C@H](C)[C@@]2(O)[C@@H](OC(C)=O)[C@H]2[C@]3(CC[C@H](OC(C)=O)[C@]2(C)[C@@H](OC(=O)COC(=O)CC(C)C)/C=C\1)CO3`?
A: CC50 at 72 h [1]: > 100 µM; inhibition at 10 µM [2]: 0%; CC50 at 72 h [3]: > 100 µM
